This note sets out measurements from patent US20250064773A1, “TARGETING ERO1 ALPHA WITH AURONE DERIVATIVES” (West Virginia University Board of Governors on behalf of …, priority 2021, published 2025).

This experiment has as its system PC-9 ERO1α knockout clones. Description: Soft agar clonogenic assay, PC-9 ERO1α knockout clones. The note with it: 14 days, 3.75-15 μM. In kind it is cell-based. The method, then:
We utilized an MTT assay to determine the potency of the compounds for inhibiting cell growth. […] We next asked whether T151742 induced inhibition of cell growth was dependent on ERO1α expression. As shown in FIG. 6C two ERO1α deleted clones in the PC-9 cell line were isolated. Using an MTT assay to determine overall cellar viability, a non-targeted control (scramble), and both ERO1α knockout clones was subjected to treatment with T151742 for 72 hours (See FIG. 6D). […] Though only slight differences were observed between T151742 and EN-460 we tested the effects of these compounds in a clonogenic assay which is a better test for inhibition of self-renewal.
FIG. 7A and FIG. 7B show 1000 cells/well were plated in a 12-well plate in triplicate with either 0.5% DMSO, T151742, or EN-460 and allowed to form colonies for 14 days. Colonies were subsequently stained with 0.01% Crystal Violet, imaged, and quantified using ImageJ. […] Colonies were stained with 0.01% Crystal Violet, imaged, and quantified using ImageJ.
Cell Lines: PC-9 cell line used was obtained from Sigma Aldrich and grown in RPMI 1640 medium with 10% fetal bovine serum and 1% penicillin/streptomycin. […] Plate was then read on the BioTek Cytation 5 at 530/590 nm. […] Plate was then read at 570 nm. […] Images were then quantified using ImageJ. […]

With `CN(C)c1ccc(/C=C2\Oc3cc(O)ccc3C2=O)cc1` [Compound T151742], the “sensitivity of ERO1α knockout clones in clonogenic assay” value is listed as “completely resistant”.
